Measured values as given in patent US11738067B2, “Elevated intracranial pressure treatment” (INVEX THERAPEUTICS LTD., priority 2014, dated 2023).
“Also recorded” adds a separate entry of the source. The star is where a group is joined. Myristoyl = CCCCCCCCCCCCCC(=O)*

Legend:
[1] = IIH patients, cited from earlier work; for visual field grades: no significant difference between groups
Na^+K^+ATPase [2] = conditions: literature refs 10, 13-15; cited from earlier work
Na^+K^+ATPase [3] = assay: Na+K+ATPase activity assay in CPe cells; type: cell-based, rat
Description: (§1) Choroid plexus tissue from lateral and fourth ventricles were dissected and incubated with 0.25% trypsin solution for 2.5 hours at 4° C. followed by 30 minutes at 37° C. Trypsin digestion was stopped by the addition of newborn calf serum and the cell suspension was centrifuged at 20 g for 10 minutes. Cells were resuspended in DMEM/F12 supplemented with 10% FBS, 1% penicillin/streptomycin, 4 mM L-glutamine, 200 ng/ml hydrocortisone, 5 ng/ml sodium selenite and 10 ng/ml EGF. 20 μM cytosine arabinoside was used for the first 4 days in culture to limit the growth of fibroblasts (Gath et al., 1997). Initially the cells were seeded onto a laminin coated 6 well plate and allowed to grow for 2 days before being transferred to laminin coated 96 well plates or 12 well inserts (Greiner Bio-One Ltd). On day 4 the media was replaced with DMEM/F12 supplemented with 10% FBS and 1% penicillin/streptomycin and changed every 2-3 days. After reaching confluency, CPe cells were serum deprived for 3 days prior to the beginning of the studies (between days 10-14).
The effect of Exendin-4 on Na^+K^+ATPase activity in the choroid plexus was evaluated by the colorimetric measurement of phosphate released from ATP with the use of a phosphate assay kit (ab65622, Abcam); with Na^+K^+ATPase activity being defined as the portion of phosphate produced that is sensitive to Ouabain. CPe cells were incubated with aCSF for 1 hour at 37° C. before incubation in aCSF containing; 100 nM Exendin-4 (n=7), 5 μM PKI-16-22-amide (n=8), 100 nM Exendin-4+5 μM PKI-16-22-amide (n=8); in the presence and absence of 1 mM Ouabain for 30 minutes at 37° C. The cells were then lysed on ice and spun at 13,000 g to remove cell debris. Phosphate was measured as per the manufacturer's instructions. Briefly the samples were added to the reaction mix and incubated at room temperature for 60 minutes before the plate was read at 690 nm. Na^+K^+ATPase activity was calculated as the difference between the amount of phosphate produced in the presence and absence of Ouabain for each treatment.

GLP-1R [4] = target: T1, GLP-1R (Rattus norvegicus, UniProt P32301); assay: GLP-1R localisation by immunofluorescent staining in choroid plexus explants; type: cell-based; conditions: 100 nM
T1 construct: The choroid plexus from the lateral ventricles were dissected and placed in artificial CSF; from tissue; host or cells: rat choroid plexus explants (lateral ventricles)
T1 sequence (P32301 22-463): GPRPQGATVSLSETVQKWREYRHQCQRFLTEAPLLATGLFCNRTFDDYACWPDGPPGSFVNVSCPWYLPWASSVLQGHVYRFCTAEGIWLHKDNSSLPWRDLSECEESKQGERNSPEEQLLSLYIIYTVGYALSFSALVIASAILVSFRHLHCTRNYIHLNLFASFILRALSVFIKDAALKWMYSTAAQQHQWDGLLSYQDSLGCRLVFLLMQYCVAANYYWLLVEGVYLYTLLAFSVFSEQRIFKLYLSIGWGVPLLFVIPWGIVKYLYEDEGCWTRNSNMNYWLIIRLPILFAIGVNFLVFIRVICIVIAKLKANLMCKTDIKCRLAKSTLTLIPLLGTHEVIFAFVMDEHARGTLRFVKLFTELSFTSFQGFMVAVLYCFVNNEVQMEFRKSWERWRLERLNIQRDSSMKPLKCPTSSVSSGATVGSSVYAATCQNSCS
Description: (§2) The choroid plexus from the lateral ventricles were dissected and placed in artificial CSF (aCSF; 118 mM NaCl, 22 mM NaHCO3, 1.45 mM K2HPO4, 1 mM MgSO4, 1 mM CaCl2 and 10 mM glucose). To evaluate the effects of Exendin-4 on GLP-1R localisation within the cell, the explants were incubated with aCSF containing 100 nM Exendin-9 for 15 minutes or 100 nM Exendin-4 for 15 and 30 minutes. The explants were then fixed and stained following the protocol described below. To determine the effects of Exendin-4 on GLP-1R mRNA expression and protein levels the explants were incubated with aCSF containing 100 nM Exendin-4 for 3 and 6 hours, immediately frozen in liquid nitrogen and stored at −80° C.
For fluorescence labelling of choroid plexus explants and CPe cells, cells were first fixed in PBS containing 2% PFA and 2% glucose for 20 minutes at room temperature, washed in PBS and then permeabilised with methanol for 6 minutes at room temperature. The cells were stained using the same technique described above except that PBST was substituted with PBS.
Stained cells and sections were viewed under a Zeiss LSM 510 UV-confocal microscope (Carl Zeiss) and multiple Z-stack images were taken.

[5] = ICP recordings in conscious rats (epidural pressure bolt); type: in vivo, rat; conditions: for change in ICP from baseline: 30 and 60 minutes post treatment
Description: This procedure and its validation were recently published as a methodological work and contains all technical and surgical detail (Uldall et al, 2014). In brief, rats were anaesthetised (2.7 ml/kg subcutaneous injection containing 1.25 mg/ml midazolam, 2.5 mg/ml fluanisone and 0.079 mg/ml fentanylcitrate). The rat was placed in a stereotactic frame (David Kopf Instruments) and a 2 cm-midline incision was performed on top of the skull and the bone was exposed by retracting the skin and soft tissue. A dental drill was used to induce 4 burr holes in the skull; one large hole was carefully drilled to expose the dura mater to enable placement of the epidural pressure bolt (C313G-3UP, PlasticsOne), with the cannula cut to be level with the base of the pedestal. The other 3 smaller holes were used to fit anchoring screws to the skull. The epidural pressure bolt and the anchoring screws were placed and aligned with the interior surface of the skull and secured using dental resin-cement (Clearfil SA Cement, RH Dental). The epidural pressure bolt and the transducer (DTX-Plus™, Argon Medical Devices) were then connected by a polyethylene tube filled with sterile water, ensuring the absence of air bubbles.
The pressure signal was visualised and recorded using Perisoft v.2.5.5 (Perimed). Correct ICP signal was confirmed by the transient elevation of ICP after jugular vein compression. When the ICP recording procedure was completed the epidural pressure bolt was closed with a bite proof cap (303DCFTX2, PlasticsOne) and the rat allowed to recover.
In order to perform recordings in conscious animals, rats were sedated with midazolam (2.5 mg/kg subcutaneous injection) and the transducer connected to the epidural pressure bolt. […] The ICP signal was again confirmed by jugular vein compression as described above. […]

[6] = tested on: rat choroid plexus explants; assay: Intracellular Na+ levels (Sodium Green) in choroid plexus explants; type: cell-based; conditions: artificial CSF+Exendin-4 for 3 hours vs no treatment
Description: Intracellular Na^+ levels were observed using Sodium Green (iNa^+) (life technologies). Briefly, rat choroid plexus explants were incubated with iNa^+ for 30 minutes before treatment with artificial CSF (no treatment) or artificial CSF+Exendin-4 for 3 hours. The fluorescence intensity directly correlates with the amount of intracellular Na^+.

GLP-1R [7] = target: T1, GLP-1R; assay: GLP-1R mRNA (qPCR) and protein (western blot) in choroid plexus explants; type: cell-based; conditions: 100 nM
Description: as §2
For qPCR studies, hypothalamus, anterior pituitary and choroid plexus were dissected, immediately frozen in liquid nitrogen and stored at −80° C. Primary cultures of CPe cells were grown on 12 well inserts until confluency. Total RNA was extracted using the GenElute mammalian total RNA extraction kit (Sigma-Aldrich) and carried out according to the manufacturer's instructions. RNA was reverse transcribed to complementary DNA (cDNA) using a high capacity reverse transcription kit according to the manufacturer's protocol (Life Technologies). Taqman Gene Expression Assays (Life Technologies) were used to assess the expression of GLP-1R (assay number Rn00562406_m1). The 18S ribosomal subunit was used as an endogenous reference (4319413E) and samples were run in triplicate. The cycle number at which the particular sample crossed that threshold (Ct) was used to determine the levels of gene expression and ΔCt was calculated as the difference between the Ct (gene of interest) and the Ct (endogenous reference).
The hypothalamus, pituitary and choroid plexus were dissected, immediately frozen in liquid nitrogen and stored at −80° C. Tissues were homogenised in ice cold lysis buffer (20 mM Tris-HCl pH 7.4, 150 mM NaCl, 1 mM EDTA, 0.5 mM EGTA, 1% NP-40 containing protease inhibitor) and centrifuged at 13,000 g to remove cell debris. CPe cells were grown on 12 well inserts until confluency. Cell and tissue lysates (3 μg protein) were separated on an 8% SDS-PAGE gel. […] After washing in TBST the membranes were incubated with HRP-conjugated secondary antibody diluted in milk/TBST for 1 hour at room temperature. The bands were detected using ECL reagents (Amersham) and developed onto film.

GLP-1R [8] = target: T1, GLP-1R; assay: cAMP assay in primary CPe cells; type: cell-based
Description: as §1
The effect of Exendin-4 on the downstream GLP-1R signalling pathway was assessed by measuring the levels of cAMP in CPe cells using the Amersham cAMP Biotrak Enzyme immunoassay (EIA) System (RPN 225, GE Healthcare Life Sciences). […] The cells were subsequently lysed and cAMP detected according to the manufacturer's instructions.

GLP-1R [9] = target: T1, GLP-1R; assay: cAMP levels in choroid plexus explants; type: cell-based; conditions: 3 hours, vs aCSF
Description: Histogram of mean±SEM of cAMP levels in choroid plexus explants in the 3 groups. The normal levels of cAMP observed with aCSF were increased after the addition of Exendin-4 (GLP-1R agonist) for 3 hours. Forskolin, an adenylate cyclase activator, acted as a positive control for cAMP levels;

[10] = Clinical observation of ICP in IIH patients treated with diuretics; type: in vivo

Question: What does the source list for `CC1(C)O[C@@H]2[C@@H](CO[C@@]3(COS(N)(=O)=O)OC(C)(C)O[C@@H]23)O1` [Topiramate]?
Answer: visual field grades [1]: improved from baseline; therapeutic benefit on IIH versus acetazolamide control cohort [1]: no therapeutic benefit on IIH was noted above the control cohort; weight loss [1]: induce weight loss

Question: With `C[C@@H]1O[C@@H](O[C@H]2C[C@@H](O)[C@]3(CO)[C@H]4[C@H](O)C[C@]5(C)[C@@H](C6=CC(=O)OC6)CC[C@]5(O)[C@@H]4CC[C@]3(O)C2)[C@H](O)[C@H](O)[C@H]1O` [ouabain, Ouabain] as the compound, how does the CSF secretion (Na^+K^+ATPase [2]) read?
Answer: totally inhibited

Question: For “myristoylated protein kinase inhibitor (PKI)-(14-22)-amide (Myristoyl-SGRTGRRNA-NH2; UniProt P61925 14-22, looked up, fragment) [PKA inhibitor]”, which “effect on the Exendin-4 reduction in Na+K+ATPase activity” value (Na^+K^+ATPase [3]; 5 μM PKA inhibitor + 100 nM Exendin-4) is on record?
Answer: abolish the Exendin-4 reduction

Question: Which “GLP-1R localisation after 15 minutes” value (GLP-1R [4]) does the source give for Exendin-9 here?
Answer: predominantly restricted to the apical surface; also recorded: restricted to the apical membrane

Question: Which “change in ICP from baseline” value ([5]; 1 μg/kg) does the source give for Exendin-4 here?
Answer: lowered the ICP from baseline

Question: And the “change in ICP from baseline” value ([5]; 3 μg/kg)?
Answer: lowered the ICP from baseline

Question: What about the “change in ICP from baseline” value ([5]; 5 μg/kg) of the same compound?
Answer: greatest reduction

Question: And the “ICP over a 24 hour period” value ([5]; 5 μg/kg, 24 hours)?
Answer: remained reduced

Question: And the “time to significant ICP reduction compared to saline” value ([5]; conscious rats, 20 μg/kg subcutaneous)?
Answer: ≤ 10 min

Question: What about the “persistence of ICP reduction during recording” value ([5]; conscious rats, 20 μg/kg subcutaneous, 60 minutes recording) of the same compound?
Answer: remained significantly lower for the rest of the recording; also recorded: lasted for the full 60 minutes

Question: What about the “ICP reduction from baseline” value ([5]; conscious rats, 20 μg/kg subcutaneous, within 10 minutes) of the same compound?
Answer: 60.6±4.9%

Question: And the “GLP-1R localisation after 15 minutes” value (GLP-1R [4])?
Answer: predominantly restricted to the apical surface; also recorded: relocation of the GLP-1R to the apical surface

Question: And the “GLP-1R localisation after 30 minutes” value (GLP-1R [4]; 30 minutes)?
Answer: translocated back to the cytoplasm; also recorded: internalised

Question: And the “intracellular Na+ levels (Sodium Green fluorescence)” value [6]?
Answer: higher numbers of intense fluorescent choroid plexus epithelial cells with no treatment

Question: What about the “intracellular Na+ levels (Sodium Green fluorescence)” value ([6]; listed as exendin-4) of the same compound?
Answer: reduce intracellular sodium

Question: What about the “Na+K+-ATPase activity compared to control (in words)” value (Na^+K^+ATPase [3]; 100 nM, 30 minutes, FIG. 10B) of the same compound?
Answer: reduced

Question: And the “Na+K+ATPase specific phosphate production” value (Na^+K^+ATPase [3]; 100 nM, 30 minutes, ouabain-sensitive)?
Answer: 39.3±9.4 % of control

Question: What about the “GLP-1R mRNA level” value (GLP-1R [7]; 3 hours, vs aCSF) of the same compound?
Answer: significant increases

Question: And the GLP-1R protein level (GLP-1R [7]; 3 hours, vs aCSF)?
Answer: significant increases

Question: And the “GLP-1R mRNA level” value (GLP-1R [7]; 6 hours)?
Answer: returned to basal levels

Question: What about the GLP-1R protein level (GLP-1R [7]; 6 hours) of the same compound?
Answer: remained high

Question: And the “increase in cAMP compared to baseline” value (GLP-1R [8]; 100 nM, 30 minutes, 1 mM IBMX)?
Answer: 2 fold

Question: What about the “cAMP levels in CPe cells compared to control (in words)” value (GLP-1R [8]; FIG. 10A) of the same compound?
Answer: significantly increased

Question: What about the “cAMP levels in choroid plexus explants” value (GLP-1R [9]) of the same compound?
Answer: increased

Question: And the “cAMP levels in choroid plexus explants” value (GLP-1R [9]; listed as exendin-4)?
Answer: increased levels of cAMP

Question: With `NS(=O)(=O)c1cc(C(=O)O)c(NCc2ccco2)cc1Cl` [furosemide] as the compound, how does the “effects on ICP in IIH patients” value [10] read?
Answer: clinically beneficial effects on ICP

Question: Which visual field grades [1] does the source give for `CC(=O)Nc1nnc(S(N)(=O)=O)s1` [Acetazolamide] here?
Answer: improved from baseline
